Measured values reported in PMC4784888, “Activity Based High-Throughput Screening for Novel O-GlcNAc Transferase Substrates Using a Dynamic Peptide Microarray” (PLoS ONE, 2016).
pIC50: −log10 of the molar value.

Legend:
purified m-OGT [1] = assay: Inhibition of RBL-2_410–422 O-GlcNAcylation by known OGT inhibitor on microarray; type: biochemical, human; settings: 200 μM ST045849, purified m-OGT (0.2 μg/μL), 1 mM UDP-GlcNAc
Description: One step OGT purification was performed using His60 Ni Gravity Flow Columns (Clontech) according to the manufacturer’s instructions. Briefly, the nickel column was equilibrated with a buffer containing 50 mM sodium phosphate, 300 sodium chloride, 20 mM imidazole, and pH 7.4, followed by incubation with cell lysate containing His tag OGT for 1h at 4°C. After washing several times using buffer containing 50 mM sodium phosphate, 300 sodium chloride, 40 mM imidazole, and pH 7.4, the recombinant OGT was eluted using elution buffer containing 50 mM sodium phosphate, 300 mM sodium chloride, 300 mM imidazole, and pH 7.4. […]
(§1) Peptide O-GlcNAcylation was assessed using PamChip 4 microarray chips with a PamStation 12 instrument (Pamgene international, The Netherlands). […] O-GlcNAcylation of each peptide was detected by a fluorescent signal which was produced by an FITC conjugated antibody bound to the O-GlcNAc moiety on the peptide.
Image analysis was performed using BioNavigator 6 software (Pamgene international, The Netherlands). Briefly, each image was quantified by automated array grid finding and subsequent quantification of signal and local background for each individual spot. In this work, the signal median-minus-background value was used as the quantitative parameter for the O-GlcNAcylation of the peptide. […]

OGT = settings: known OGT inhibitor; ref [31]; read-out: reported IC50; cited from earlier work
Excerpt: Its interesting biology motivated us to further focus on the validation of RBL-2 O-GlcNAcylation in the following work. Kinetic signals of the GlcNAcylation were collected to fully understand the O-GlcNAcylation of RBL-2_420–422.

m-OGT [2] = assay: Validation of RBL-2 peptide O-GlcNAcylation on microarray, dependency on UDP-GlcNAc and m-OGT lysate; type: biochemical, human
Description: (§2) Plasmids encoding s-OGT, m-OGT, and nc-OGT are generous gifts from John A. Hanover (National Institute of Health, USA). OGT overexpression was carried out as previously described. All the plasmids were transformed into E.coli BL21 (DE3) competent cells to produce a cell lysate containing OGT for use or for further purification. Briefly, inoculated a single colony into 50 ml of LB broth media containing 50 μg/ml ampicillin and cells were grown overnight at 37°C with vigorous shaking. 50 mL of the start culture was added into 1L LB broth media containing 50 μg/mL ampicillin and it was incubated with shaking at 200 rpm at 37°C until A600 reached 0.4–0.6. After the culture was cooled to room temperature, 0.5 mM IPTG was added into the culture to induce protein expression. […] After centrifugation for 10 min at 12000 rpm at 4°C, the supernatant was carefully transferred into a clean tube and was ready for the array assay or for further purification. Protein expression was determined by coomassie blue staining and western blotting using an anti-OGT antibody.
as §1, with “peptide. […]” for “peptide.”

nc-OGT = assay: O-GlcNAcylation on kinase substrate peptide microarray, nc-OGT; type: biochemical, human; settings: bacterial lysate containing nc-OGT (7 μg/μL), 1 mM UDP-GlcNAc, 50 mM Tris-HCl pH 7.5, 30°C, FITC antibody fluorescence, corrected for signal without UDP-GlcNAc
Description: (§3) Plasmids encoding s-OGT, m-OGT, and nc-OGT are generous gifts from John A. Hanover (National Institute of Health, USA). OGT overexpression was carried out as previously described. All the plasmids were transformed into E.coli BL21 (DE3) competent cells to produce a cell lysate containing OGT for use or for further purification. Briefly, inoculated a single colony into 50 ml of LB broth media containing 50 μg/ml ampicillin and cells were grown overnight at 37°C with vigorous shaking. 50 mL of the start culture was added into 1L LB broth media containing 50 μg/mL ampicillin and it was incubated with shaking at 200 rpm at 37°C until A600 reached 0.4–0.6. After the culture was cooled to room temperature, 0.5 mM IPTG was added into the culture to induce protein expression. After 16 hours, the cells were collected by centrifugation for 10 min at 4000 RPM at 4°C. The pellets were lysed in lysis buffer containing 20 mM Tris-HCl, pH 7.5, 1 mg/mL lysome, 0.1% triton x-100 and complete mini EDTA-free protease inhibitor cocktail on ice for 10 min and the lysate was sonicated until the DNA was completely sheared. After centrifugation for 10 min at 12000 rpm at 4°C, the supernatant was carefully transferred into a clean tube and was ready for the array assay or for further purification. Protein expression was determined by coomassie blue staining and western blotting using an anti-OGT antibody.
(§4) Peptide O-GlcNAcylation was assessed using PamChip 4 microarray chips with a PamStation 12 instrument (Pamgene international, The Netherlands). The OGT enzyme reaction was prepared essentially as described[26] with minor modifications. Briefly, before addition of the enzyme reaction, the microarray was blocked with blocking buffer (1% BSA in TBS). After 30 cycles (2 cycles/min) blocking, the blocking buffer was aspirated and the microarray was incubated with 40 μL of the enzyme reaction containing OGT (lysate or purified), OGT reaction buffer (50 mM Tris—HCl, pH 7.5;1 mM DTT;12.5 mM MgCl2), a 1:1 pre-incubated mixture of anti-O-GlcNAc and FITC conjugated secondary antibody, and the sugar donor UDP-GlcNAc or water as a control for 480 cycles (2 cycles/min) at 30°C. The microarray was run in parallel by pumping the reaction up and down through the porous membrane at every cycle and a tiff image was obtained at every 20 cycles by a CCD camera inside the PamStation. O-GlcNAcylation of each peptide was detected by a fluorescent signal which was produced by an FITC conjugated antibody bound to the O-GlcNAc moiety on the peptide.
(§5) Image analysis was performed using BioNavigator 6 software (Pamgene international, The Netherlands). Briefly, each image was quantified by automated array grid finding and subsequent quantification of signal and local background for each individual spot. In this work, the signal median-minus-background value was used as the quantitative parameter for the O-GlcNAcylation of the peptide.
(§6) Dynamic peptide microarray (PamChip) technology has been successfully and widely used for kinase activities profiling in the last decade. In the present work, we describe, for the first time, the utility of this peptide microarray format for the identification of human OGT activity. Due to the fact that O-GlcNAcylation and phosphorylation may occur at the same or proximal amino acids on the same protein [9], a peptide microarray of 144 peptides derived from different kinase substrates (S1 Appendix) was selected for an initial test. […] O-GlcNAcylation of peptides in each individual spot was detected by a fluorescent signal produced by the FITC labelled antibody recognizing the O-GlcNAcylated amino acids of converted peptides. Kinetic activity was measured through scanning the signal at regular intervals.
(§7) Fig 2 Identification of human OGT substrates from a kinase substrate and nuclear hormone receptor interaction peptide microarray. […]

m-OGT [3] = assay: O-GlcNAcylation on kinase substrate peptide microarray, m-OGT; type: biochemical, human; settings: bacterial lysate containing m-OGT (7 μg/μL), 1 mM UDP-GlcNAc, 50 mM Tris-HCl pH 7.5, 30°C, FITC antibody fluorescence, corrected for signal without UDP-GlcNAc
Description: as §3, §4, §5, §6, §7

s-OGT = assay: O-GlcNAcylation on kinase substrate peptide microarray, s-OGT; type: biochemical, human; settings: bacterial lysate containing s-OGT (7 μg/μL), 1 mM UDP-GlcNAc, 50 mM Tris-HCl pH 7.5, 30°C, FITC antibody fluorescence, corrected for signal without UDP-GlcNAc
Description: as §3, §4, §5, §6, §7

[4] = system: OGT (s-OGT, m-OGT, nc-OGT); assay: O-GlcNAcylation on kinase substrate peptide microarray, three isoforms taken together; type: biochemical, human
Description: as §2, with “expression. After 16 hours, the cells were collected by centrifugation for 10 min at 4000 RPM at 4°C.” for “expression.”
as §1, §5
Dynamic peptide microarray (PamChip) technology has been successfully and widely used for kinase activities profiling in the last decade. […] Kinetic activity was measured through scanning the signal at regular intervals. […]

purified m-OGT [5] = assay: Ala scan of RBL-2_410–422 on peptide microarray; type: biochemical, human; settings: microarray; 1 mM UDP-GlcNAc, 0.2 μg/μL purified m-OGT
Description: One step OGT purification was performed using His60 Ni Gravity Flow Columns (Clontech) according to the manufacturer’s instructions. Briefly, the nickel column was equilibrated with a buffer containing 50 mM sodium phosphate, 300 sodium chloride, 20 mM imidazole, and pH 7.4, followed by incubation with cell lysate containing His tag OGT for 1h at 4°C. After washing several times using buffer containing 50 mM sodium phosphate, 300 sodium chloride, 40 mM imidazole, and pH 7.4, the recombinant OGT was eluted using elution buffer containing 50 mM sodium phosphate, 300 mM sodium chloride, 300 mM imidazole, and pH 7.4. The eluted fraction was concentrated through a 100,000 Da molecular weight cut off Amicon unit by centrifugation 10 min at 5000 RPM at 4°C.
as §4, §5
Synthesis of all the peptides was achieved by following a standard Fmoc SPPS strategy on a Symphony Multiple Peptide Synthesizer and starting from rink amide resin. The following Fmoc amino acids were used: Fmoc-Cys(Trt)-OH, Fmoc-Gly-OH, Fmoc-Lys(Boc)-OH, Fmoc-Glu(Otbu)-OH, Fmoc-Asn(Trt)-OH, Fmoc-Ser(tBu)-OH, Fmoc-Thr(tBu)-OH, Fmoc-Ala-OH, Fmoc-Pro-OH, Fmoc-Val-OH. Deprotection was performed using 20% piperidine in DMF, and coupling was performed using 1:0.9:2 amino acid/ HBTU/DIPEA in DMF. After completion of the synthesis, the protected peptidyl resins were incubated with a 10 mL mixture of TFA (trifluoroacetic acid): H2O: triisopropylsilane (TIPS): 1, 2-ethanedithiol (EDT) (9:0.5:0.25:0.25, v/v/v/v) and allowed to stir for 2 h at room temperature under a nitrogen atmosphere. The cleaving mixture was filtered and the resin was washed with TFA (2 mL) and DCM (4 mL). The residue was precipitated by treatment of precooled diethyl ether and centrifugation. Two times washing and centrifugation yielded the crude products in a pellet. The precipitated peptides were dissolved in water, frozen, and lyophilized. All products were stored at -20°C. Crude peptide analysis was carried out by LC-MS.
To further confirm this and investigate the role of this and surrounding amino acid residues in our activity based assay, we resynthesized the RBL-2 peptide present on the microarray and performed an Ala scan, thus replacing of all the possible O-GlcNAc sites (Ser and Thr) in RBL-2_420–422 (Fig 4A). To immobilize the peptides on the chip, all the peptides were prepared with an extra CG at the NH2 terminal to allow immobilization on the maleimide-based chip surface. […]

| Compound | inhibition of RBL-2 peptide O-GlcNAcylation (purified m-OGT [1]) [%] | pIC50 (OGT) | O-GlcNAcylation versus amount of m-OGT lysate (m-OGT [2]; bacterial lysate containing m-OGT 0, 1.7, 3.5, 7 μg/μL, 1 mM UDP-GlcNAc) | O-GlcNAcylation rate versus UDP-GlcNAc concentration (m-OGT [2]; bacterial lysate containing m-OGT (7 μg/μL), UDP-GlcNAc 0–10 mM) | OGT isoforms activity, nc (nc-OGT) | OGT isoforms activity, m (m-OGT [3]) | OGT isoforms activity, s (s-OGT) | Rank as hit in screening assay ([4]; peptide microarray screening) | OGT activity of wild type compared with C415A, microarray (purified m-OGT [5]) | O-GlcNAcylation by all three isoforms OGT ([4]; kinase substrate microarray, bacterial lysates s-, m-, nc-OGT, 1 mM UDP-GlcNAc) |
| --- | --- | --- | --- | --- | --- | --- | --- | --- | --- | --- |
| O=C(O)C1CC(=O)N(CCC23CC4CC(CC(C4)C2)C3)C(=Nc2ccc(Cl)cc2)S1 (stereo not shown) [ST045849, 3-(2-adamantanylethyl)-2-[(4-chlorophenyl)azamethylene]-4-oxo-1,3-thiazaperhyd roine-6-carboxylic acid] | 80 | ~4.30 | – | – | – | – | – | – | – | – |
| KENSPCVTPVSTA [RBL-2_410_422, kinase substrate microarray peptide …] | – | – | increased with increasing amounts of bacterial lysate containing recombinant m-OGT | increased upon the addition of increasing concentrations of the donor UDP-GlcNAc | P (Signal greater than 5% of the highest signal was defined as positive (P)) | P (Signal greater than 5% of the highest signal was defined as positive (P)) | P (Signal greater than 5% of the highest signal was defined as positive (P)) | best hit in our screening assay | dramatic decrease of activity comparing with C415A peptide | – |
| LSAFRRTSLAGGG [MYPC3_268_280, kinase substrate microarray peptide …] | – | – | – | – | P (Signal greater than 5% of the highest signal was defined as positive (P)) | P (Signal greater than 5% of the highest signal was defined as positive (P)) | P (Signal greater than 5% of the highest signal was defined as positive (P)) | – | – | significantly O-GlcNAcylated by all three isoforms OGT |
